Data reported in patent US8288380B2, “Thiophenediamine derivative having urea structure” (Santen Pharmaceutical Co., Ltd., priority 2008, dated 2012).

How the values were obtained:
[1] = test system: HDAC (HeLa nuclear extract); assay: Test for evaluation of HDAC inhibitory activity (HDAC Fluorimetric Assay/Drug Discovery Kit, Biomol); format: biochemical; conditions: final concentration of the test compound 30 μM, values more than 100% shown as 100%
Procedure: Using HDAC Fluorimetric Assay/Drug Discovery Kit (manufactured by Biomol), HDAC inhibitory activity of the present compounds was measured according to the protocol included with the kit. The kit contains Buffer, HeLa nuclear extract (includes HDAC), Substrate, Developer and Trichostatin A HDAC inhibitor).
A test compound was dissolved in dimethyl sulfoxide (hereinafter referred to as “DMSO”), whereby a 2 mg/mL solution was prepared. Then, the resulting solution was diluted with Buffer containing 5% DMSO, whereby a 150 μM test compound solution was prepared.
1) To a 384-well culture plate, the test compound solution was added in an amount of 2 μL per well.
2) HeLa nuclear extract was diluted 30-fold with Buffer. The resulting solution was added in an amount of 3 μL per well, and then incubation was performed at 37° C. for 2 hours.
3) Substrate was diluted 500-fold with Buffer. The resulting solution was added in an amount of 5 μL per well (the final concentration of the test compound was 30 μM), and then incubation was performed at 37° C. for 10 minutes.
4) Developer was diluted 20-fold with Buffer and Trichostatin A (2 μM) was added to it. The resulting solution was added in an amount of 10 μL per well, and then incubation was performed at room temperature for 15 minutes.
5) The fluorescence intensity of each well was measured using multilabel counter ARVO (manufactured by Wallac) with excitation at 360 nm and emission at 460 nm.
6) A control data was obtained from the same experiment except that Buffer containing 5% DMSO was added instead of the test compound solution as the above-mentioned procedure from 1) to 5).
7) A blank data was obtained from the same experiment except that Buffer containing 5% DMSO was added instead of the test compound solution and that Buffer was added instead of Hela nuclear extract as the above-mentioned procedure from 1) to 5).
Enzyme inhibitory rate (%) was calculated using the following equation. (Enzyme Inhibitory Rate(%))=100×[1−{(Fluorescence Intensity of Test Compound Solution)−(Florescence Intensity of Blank)}/{(Florescence Intensity of Control)−(Florescence Intensity of Blank)}] (Test Results)

[2] = test system: human trabecular meshwork cell line (TM-1 cells); assay: Test for evaluation of effect of morphological change on trabecular meshwork cells (cell shape index, CSI); format: cell-based; conditions: final concentration 10 μM, 24 hours incubation, Control 0.694, lower CSI indicates greater morphological changes
From the text: Further, as a result of studying an effect morphological change of the present compound on trabecular meshwork cells, i.e., an effect of morphological change of the present compound on trabecular meshwork cells in an evaluation system using the cell shape index (hereinafter referred to as “CSI”) reported in The Journal of Clinical Investigation, 103, 1141-1150 (1999) as an index, it was found the present compound has an excellent effect of morphological change on trabecular meshwork cells.
As a method for evaluating a cellular morphological change, an evaluation system using the cell shape index (hereinafter referred to as “CSI”) as an index has been reported in The Journal of Clinical Investigation, 103, 1141-1150 (1999). Therefore, according to the method described in the above document, an effect of morphological change of the present compounds on trabecular meshwork cells was evaluated.
A human trabecular meshwork cell line (hereinafter referred to as “TM-1 cells”) reported in Investigative Ophthalmology & Visual Science, 43, 151-161 (2002) was used.
Culture medium 1: A reagent was prepared by adding fetal bovine serum (10%), L-glutamine (2 mM), amphotericin B ([…]), and gentamicin (25 μg/mL) to Dulbecco's Modified Eagle Medium (hereinafter referred to as “D-MEM”).
Culture medium 2: A reagent was prepared by adding fetal bovine serum (3%), L-glutamine (2 mM), amphotericin B (2.5 μg/mL), and gentamicin (25 μg/mL) were added to D-MEM.
Cell staining liquid: A mixed liquid of Calcein-AM (16 μM) and Hoechst 33342 (40 μM) was prepared by diluting a Calcein-AM solution (cytoplasmic staining reagent, manufactured by Dojindo Laboratories) and a Hoechst 33342 solution (nuclear staining reagent, manufactured by Dojindo Laboratories) with D-MEM containing L-glutamine (2 mM), amphotericin B (2.5 μg/mL), and gentamicin (25 μg/mL).
TM-1 cells subcultured at 37° C. in a 8% carbon dioxide gas atmosphere were treated with a trypsin/EDTA solution (0.05% trypsin and 0.53 mM tetrasodium ethylenediaminetetraacetate) at 24 hours before performing a drug treatment mentioned below and seeded on a 96-well culture plate. The culture medium 1 was used for the subculture of the cells. The culture medium 2 was used for the cell culture after seeding the cells on the plate.
A test compound was dissolved in DMSO, whereby a 5 mM solution was prepared. Then, the resulting solution was diluted with the culture medium 2, whereby a 200 μM test compound solution was prepared.
It has been reported that Y-27632 which is a Rho kinase inhibitor induces a morphological change in trabecular meshwork cells in Investigative Ophthalmology & Visual Science, 42, 137-144 (2001). Therefore, Y-27632 (produced according to the method described in WO 90/05723) was used as a positive control, and dissolved in DMSO in the same manner as the test compound, whereby a 5 mM solution was prepared, and then, the resulting solution was diluted with the culture medium 2, whereby a 200 μM positive control compound solution was prepared.
1) To a 96-well culture plate, a solution of TM-1 cells adjusted to a cell density of […] was added in an amount of 95 μL (1.5×10^4 cells) per well.
2) Incubation was performed at 37° C. in a 8% carbon dioxide gas atmosphere for 24 hours.
3) The test compound solution or positive control compound solution was added in an amount of 5 μL per well (the final concentration of the test compound or positive control compound was 10 μM). As a control, the culture medium 2 containing DMSO (4%) was added in an amount of 5 μL per well.
4) Incubation was performed at 37° C. in a 8% carbon dioxide gas atmosphere for 24 hours.
5) The cell staining liquid was added in an amount of 10 μL per well.
6) Incubation was performed at 37° C. in a 8% carbon dioxide gas atmosphere for 1 hour to stain the cells.
7) A 37% formaldehyde solution was added in an amount of 10 μL per well.
8) Incubation was performed at room temperature for 1 hour to fix the cells. […]

Row | Enzyme Inhibitory Rate (%) [1] [%] | Compound | CSI [2]
1 | 97 | CN(C)CCN(Cc1ccc(C(=O)Nc2cscc2N)nc1)C(=O)Nc1ccc2c(c1)OCCO2 [Compound No. 1-1, N-(4-Aminothiophen-3-yl)-5-[3-(2,3-dihydrobenzo[1,4]dioxin-6-yl)-1-(2-dimethylaminoethyl)ureidomethyl]pyridine-2-carboxylic acid amide] | 0.527
2 | 100 | CN(C)CCN(Cc1ccc(C(=O)Nc2cscc2N)nc1)C(=O)Nc1ccsc1 [Compound No. 1-7, N-(4-Aminothiophen-3-yl)-5-[1-(2-dimethylaminoethyl)-3-(thiophen-3-yl)ureidomethyl]pyridine-2-carboxylic acid amide] | 0.523
3 | 96 | CN(C)CCN(Cc1ccc(C(=O)Nc2cscc2N)nc1)C(=O)NCCc1ccccc1 [Compound No. 1-8, N-(4-Aminothiophen-3-yl)-5-[1-(2-dimethylaminoethyl)-3-phenethylureidomethyl]pyridine-2-carboxylic acid amide] | 0.548
4 | 97 | CN(C)CCN(Cc1ccc(C(=O)Nc2cscc2N)nc1)C(=O)Nc1ccc(F)c(F)c1 [Compound No. 1-18, N-(4-Aminothiophen-3-yl)-5-[3-(3,4-difluorophenyl)-1-(2-dimethylaminoethyl)ureidomethyl]pyridine-2-carboxylic acid amide] | 0.519
5 | 100 | CN(C)CCCN(Cc1ccc(C(=O)Nc2cscc2N)nc1)C(=O)Nc1ccsc1 [Compound No. 1-24, N-(4-Aminothiophen-3-yl)-5-[1-(3-dimethylaminopropyl)-3-(thiophen-3-yl)ureidomethyl]pyridine-2-carboxylic acid amide] | 0.509
6 | 97 | Nc1cscc1NC(=O)c1ccc(CN(CCCN2CCOCC2)C(=O)NC2CCCC2)cn1 [Compound No. 1-34, N-(4-Aminothiophen-3-yl)-5-[3-cyclopentyl-1-[3-(morpholin-4-yl)propyl]ureidomethyl]pyridine-2-carboxylic acid amide] | 0.516
7 | 97 | CC(C)NC(=O)N(CCCN1CCN(C)CC1)Cc1ccc(C(=O)Nc2cscc2N)nc1 [Compound No. 1-56, N-(4-Aminothiophen-3-yl)-5-[3-isopropyl-1-[3-(4-methylpiperazin-1-yl)propyl]ureidomethyl]pyridine-2-carboxylic acid amide] | 0.422
8 | 97 | Nc1cscc1NC(=O)c1ccc(CN(CCCCN2CCOCC2)C(=O)NCCc2ccccc2)cn1 [Compound No. 1-59, N-(4-Aminothiophen-3-yl)-5-[1-[4-(morpholin-4-yl)butyl]-3-phenethylureidomethyl]pyridine-2-carboxylic acid amide] | 0.500
9 | 100 | Nc1cscc1NC(=O)c1ccc(CN(CCN2CCCC2)C(=O)NC2CCCC2)cn1 [Compound No. 1-71, N-(4-Aminothiophen-3-yl)-5-[3-cyclopentyl-1-[2-(pyrrolidin-1-yl)ethyl]ureidomethyl]pyridine-2-carboxylic acid amide] | 0.481
10 | 100 | CN1CCN(CCN(Cc2ccc(C(=O)Nc3cscc3N)nc2)C(=O)NCCc2ccc3c(c2)OCO3)CC1 [Compound No. 1-77, N-(4-Aminothiophen-3-yl)-5-[2-[3-(benzo[1,3]dioxol-5-yl)]ethyl-1-[2-(4-methylpiperazin-1-yl)ethyl]ureidomethyl]pyridine-2-carboxylic acid amide] | 0.515
11 | 95 | CCOC(=O)CNC(=O)N(CCCN1CCOCC1)Cc1ccc(C(=O)Nc2cscc2N)nc1 [Compound No. 1-88, N-(4-Aminothiophen-3-yl)-5-[3-ethoxycarbonylmethyl-1-[3-(morpholin-4-yl)propyl]ureidomethyl]pyridine-2-carboxylic acid amide] | 0.539
12 | 97 | CN(C)CCN(Cc1ccc(C(=O)Nc2cscc2N)nc1)C(=O)Nc1nccs1 [Compound No. 1-103, N-(4-Aminothiophen-3-yl)-5-[1-(2-dimethylaminoethyl)-3-(thiazol-2-yl)ureidomethyl]pyridine-2-carboxylic acid amide] | 0.496
13 | 97 | CN(C)CCN(Cc1ccc(C(=O)Nc2cscc2N)nc1)C(N)=O [Compound No. 1-104, N-(4-Aminothiophen-3-yl)-5-[1-(2-dimethylaminoethyl)ureidomethyl]pyridine-2-carboxylic acid amide] | 0.505
14 |  | C[C@@H](N)[C@H]1CC[C@H](C(=O)Nc2ccncc2)CC1 [Y-27632, reference compound] | 0.627
